ChEMBL document CHEMBL1629513, “Synthesis, characterization, antiamoebic activity and cytotoxicity of novel 2-(quinolin-8-yloxy) acetohydrazones and their cyclized products (1,2,3-thiadiazole and 1,2,3-selenadiazole derivatives)” (Eur J Med Chem, 2010)

Columns and labels:
MCF7 = assay: Cytotoxicity against human MCF7 cells after 48 hrs by MTT assay; format: cell-based; conditions: MCF7, 48 h
[1] = Cytotoxicity against human MCF7 cells assessed as cell viability up to 100 uM after 48 hrs by MTT assay; format: cell-based; conditions: read-out: Activity
Entamoeba histolytica = assay: Antiamoebic activity against Entamoeba histolytica HM-1:IMSS after 72 hrs by microdilution assay; format: functional, organism-based
[2] = Cytotoxicity against human MCF7 cells assessed as cell viability at 1.56 to 50 uM after 48 hrs by MTT assay; format: cell-based; conditions: read-out: Activity

Row | IC50 (Entamoeba histolytica) [µM] | Compound | IC50 (MCF7) [µM] | viability at 48 h [1] [%] | viability at 48 h, up to 50 µM [2] [%]
1 | 0.03 | C/C(=N\NC(=O)COc1cccc2cccnc12)c1ccccc1 | > 100 | 100 | 
2 | 0.04 | C/C(=N\NC(=O)COc1cccc2cccnc12)c1ccc(Br)cc1 | > 100 | 100 | 
3 | 0.04 | C/C(=N\NC(=O)COc1cccc2cccnc12)c1ccc(Cl)cc1 | > 100 | 100 | 
4 | 0.05 | C/C(=N\NC(=O)COc1cccc2cccnc12)c1ccccn1 | > 100 | 100 | 
5 | 0.05 | C/C(=N\NC(=O)COc1cccc2cccnc12)c1ccco1 | > 100 | 100 | 
6 | 0.08 | C/C(=N\NC(=O)COc1cccc2cccnc12)c1cccs1 | > 100 | 88 | 
7 | 0.24 | Brc1ccc(-c2csnn2)cc1 | 68.1 | 68 | 
8 | 0.39 | Clc1ccc(-c2csnn2)cc1 | > 100 |  | 
9 | 5.46 | c1ccc(-c2csnn2)nc1 |  |  | 
10 | 0.23 | c1coc(-c2csnn2)c1 | 95.1 |  | 
11 | 2.25 | c1csc(-c2csnn2)c1 | 66.9 |  | 
12 | 7.46 | c1ccc(-c2csnn2)cc1 |  |  | 
13 |  | Cc1ncc([N+](=O)[O-])n1CCO [METRONIDAZOLE] | > 100 | 100 | 

Row | Compound | IC50 (Entamoeba histolytica) [µM] | IC50 (MCF7) [µM] | viability at 48 h [1] [%] | viability at 48 h, up to 50 µM [2] [%]
14 | c1ccc(-c2c[se]nn2)cc1 | 4.56 |  |  | 
15 | Brc1ccc(-c2c[se]nn2)cc1 | 2.95 |  |  | 
16 | Clc1ccc(-c2c[se]nn2)cc1 | 0.58 | 57.1 | 57 | 66
17 | c1ccc(-c2c[se]nn2)nc1 | 0.46 | 86.6 |  | 
18 | c1coc(-c2c[se]nn2)c1 | 5.72 |  |  | 
19 | c1csc(-c2c[se]nn2)c1 | 5.28 |  |  | 
